Data published in US12397007B2, “Methods of treatment with combinations of cannabidiol and psilocybin” (ECP Pharma, priority 2021, dated 2025).

How the values were obtained:
rat blast model of TBI = assay: Rat blast model of TBI, light dark box; assay type: in vivo; conditions: CBD 5 mg/kg IP, psilocybin 1.5 mg/kg PO from one hour after injury, 7 total doses; vs vehicle; FIG. 2
Excerpt: This increased time spent in light was not seen with either CBD or psilocybin when dosed separately.

[1] = test system: adult rats exposed to a moderate fluid-percussion pulse over the right parietal cortex; assay: Moderate fluid-percussion TBI, stereological volumetric analyses of contusion and cortical atrophy; assay type: in vivo, rat; conditions: approximately 4 weeks after injury; relative to injured vehicle-control animals; FIG. 5 right panel
Method: (§1) Another study was conducted in rats to evaluate the synergy of an oral combination of psilocybin and CBD in mitigating TBI-induced pathology in a preclinical model of TBI. In this study, adult rats were exposed to a moderate fluid-percussion pulse over the right parietal cortex.
(§2) Psilocybin (1.5 mg/kg) and/or CBD (5 mg/kg) in 1 mL of ddH2O (or vehicle/ddH2O alone) was dosed by oral gavage at 1-hour post-injury, and for 1×/day for 6 consecutive days thereafter, resulting in 7 total dosage administrations. Animals receiving psilocybin+CBD were exposed to a traumatic/fearful stimulus (predatory urine) to evaluate anxiety-like behavior. Outcome measurements included sensorimotor (cylinder test), cytoprotection (volumetric analyses of contusion and cortical atrophy), and neuroinflammation (microglia reactivity).

Iba1+ microglia = assay: Moderate fluid-percussion TBI, immunohistochemical analysis of microglia reactivity; assay type: in vivo, rat
Method: as §1, §2
Boxes demarcate representative cells in which changes could be compared.

[2] = preliminary quantitative analyses, FIG. 7

C=C(C)[C@@H]1CCC(C)=C[C@H]1c1c(O)cc(CCCCC)cc1O [CBD, Cannabidiol]
stress, time spent in light in the light dark box (rat blast model of TBI): not seen | cortical volume atrophy [1]: trended positively towards normalization | reactive microglia morphology, CA1 (Iba1+ microglia; CBD 5 mg/kg alone vs TBI/Vehicle, FIG. 6 bottom row): seemed to reduce reactive microglia morphology | number of Iba1+ cells, dentate gyrus of ipsilateral hippocampus (Iba1+ microglia; CBD 5 mg/kg alone vs controls, FIG. 6 middle row): significantly greater in number in controls compared to CBD group | Iba1+ cell density, CA1 (Iba1+ microglia; CBD 5 mg/kg alone vs injured vehicle, FIG. 6 bottom row): no overt differences | injury-induced Iba+ microglia changes (Iba1+ microglia; CBD 5 mg/kg alone, FIG. 6): normalization of injury-induced Iba+microglia changes | density of Iba1+ cells, pericontusional cortex (Iba1+ microglia; CBD 5 mg/kg alone, FIG. 6 top row): reduced density of Iba1+ cells | activated microglia phenotypes, cortical penumbra (Iba1+ microglia; [2]): significantly decreased | overall microglia numbers, cortical penumbra (Iba1+ microglia; [2]): reduced overall microglia numbers
